Measurements published in ChEMBL document CHEMBL1129998, “Pharmacological options in the treatment of benign prostatic hyperplasia” (J Med Chem, 1997).
Values belong to the molecule of their own block, whether it stands above or below them.

Legend:
Canis familiaris [1] = experiment: 50% reduction in intraurethral pressure (IUP) in response to hypogastric nerve stimulation or agonist (phenylephrine or norepinephrine) administration in anesthetized dog; assay type: functional; details: Canis lupus familiaris; read-out: ID50 (the source's name)
[2] = target: T1, Alpha-1D adrenergic receptor (Homo sapiens, UniProt P25100); experiment: Binding affinity was tested on human Alpha-1D adrenergic receptor
T1 sequence (P25100 whole entry): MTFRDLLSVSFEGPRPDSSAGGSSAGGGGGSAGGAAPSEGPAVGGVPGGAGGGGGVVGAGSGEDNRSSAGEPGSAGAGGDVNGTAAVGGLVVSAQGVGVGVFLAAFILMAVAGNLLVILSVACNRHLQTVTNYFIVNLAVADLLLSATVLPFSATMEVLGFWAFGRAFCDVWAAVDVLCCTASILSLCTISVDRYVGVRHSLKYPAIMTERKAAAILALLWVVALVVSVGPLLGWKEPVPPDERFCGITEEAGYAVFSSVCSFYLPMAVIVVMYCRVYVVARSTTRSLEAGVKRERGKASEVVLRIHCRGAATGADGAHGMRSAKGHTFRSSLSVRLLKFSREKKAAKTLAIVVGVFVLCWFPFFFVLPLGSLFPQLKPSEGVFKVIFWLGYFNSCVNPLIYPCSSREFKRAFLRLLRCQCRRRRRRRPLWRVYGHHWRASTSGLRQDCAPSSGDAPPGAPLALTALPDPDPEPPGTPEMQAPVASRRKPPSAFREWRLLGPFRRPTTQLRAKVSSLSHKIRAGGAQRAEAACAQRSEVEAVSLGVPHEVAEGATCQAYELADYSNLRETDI

Canis familiaris [3] = experiment: 50% reduction in agonist induced pressor response in anesthetized dog; assay type: functional; details: Canis lupus familiaris; read-out: ID50 (the source's name)
[4] = target: T2, 3-oxo-5-alpha-steroid 4-dehydrogenase 2 (Homo sapiens, UniProt P31213); experiment: Inhibitory concentration on human prostatic 5-alpha reductase 2 isozyme
T2 sequence (P31213 whole entry): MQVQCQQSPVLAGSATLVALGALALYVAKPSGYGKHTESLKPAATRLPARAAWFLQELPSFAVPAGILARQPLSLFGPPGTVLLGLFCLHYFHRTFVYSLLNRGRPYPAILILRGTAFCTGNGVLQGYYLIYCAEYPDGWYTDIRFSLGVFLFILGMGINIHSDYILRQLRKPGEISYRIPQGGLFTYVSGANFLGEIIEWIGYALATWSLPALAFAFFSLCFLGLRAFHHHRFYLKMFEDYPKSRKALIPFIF

[5] = Inhibitory concentration on human 5-alpha reductase isozyme
[6] = target: T3, Steroid 5-alpha-reductase (Rattus norvegicus, UniProt P24008+P31214); experiment: Inhibition of rat 5-alpha reductase isozyme.; assay type: protein assay
T3 sequence (P24008 whole entry): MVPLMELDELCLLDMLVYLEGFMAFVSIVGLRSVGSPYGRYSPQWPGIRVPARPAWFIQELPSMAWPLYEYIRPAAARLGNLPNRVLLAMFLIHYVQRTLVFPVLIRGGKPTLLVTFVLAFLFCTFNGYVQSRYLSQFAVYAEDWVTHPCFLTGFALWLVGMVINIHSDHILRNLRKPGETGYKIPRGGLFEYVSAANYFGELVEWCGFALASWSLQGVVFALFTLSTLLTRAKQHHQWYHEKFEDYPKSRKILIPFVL
T3 sequence (P31214 whole entry): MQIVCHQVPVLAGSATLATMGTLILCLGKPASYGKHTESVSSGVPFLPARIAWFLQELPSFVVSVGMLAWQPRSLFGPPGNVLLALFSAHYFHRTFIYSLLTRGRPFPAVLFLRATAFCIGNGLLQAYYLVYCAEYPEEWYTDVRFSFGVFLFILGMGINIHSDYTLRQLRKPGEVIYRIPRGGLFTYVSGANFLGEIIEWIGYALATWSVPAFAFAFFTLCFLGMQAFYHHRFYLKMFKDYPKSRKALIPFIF

[7] = target: T4, Alpha-1B adrenergic receptor (Homo sapiens, UniProt P35368); experiment: Binding affinity was tested on human Alpha-1B adrenergic receptor
T4 sequence (P35368 whole entry): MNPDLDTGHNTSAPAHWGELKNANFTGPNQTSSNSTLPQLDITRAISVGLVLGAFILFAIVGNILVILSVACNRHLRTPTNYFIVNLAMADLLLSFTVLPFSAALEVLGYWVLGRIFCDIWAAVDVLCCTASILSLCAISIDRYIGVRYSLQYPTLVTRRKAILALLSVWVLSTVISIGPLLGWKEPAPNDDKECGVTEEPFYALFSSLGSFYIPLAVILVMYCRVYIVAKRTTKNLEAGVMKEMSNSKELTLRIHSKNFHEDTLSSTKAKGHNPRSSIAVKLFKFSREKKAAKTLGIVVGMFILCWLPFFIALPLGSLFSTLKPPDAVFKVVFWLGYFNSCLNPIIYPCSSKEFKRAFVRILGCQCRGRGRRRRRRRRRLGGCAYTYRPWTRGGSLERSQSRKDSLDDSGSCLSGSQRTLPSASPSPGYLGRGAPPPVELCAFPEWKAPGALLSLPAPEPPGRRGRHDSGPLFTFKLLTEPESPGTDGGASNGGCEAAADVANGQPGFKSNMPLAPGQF

[8] = target: T5, Alpha-1A adrenergic receptor (Homo sapiens, UniProt P35348); experiment: Binding affinity was tested on human Alpha-1A adrenergic receptor
T5 sequence (P35348 whole entry): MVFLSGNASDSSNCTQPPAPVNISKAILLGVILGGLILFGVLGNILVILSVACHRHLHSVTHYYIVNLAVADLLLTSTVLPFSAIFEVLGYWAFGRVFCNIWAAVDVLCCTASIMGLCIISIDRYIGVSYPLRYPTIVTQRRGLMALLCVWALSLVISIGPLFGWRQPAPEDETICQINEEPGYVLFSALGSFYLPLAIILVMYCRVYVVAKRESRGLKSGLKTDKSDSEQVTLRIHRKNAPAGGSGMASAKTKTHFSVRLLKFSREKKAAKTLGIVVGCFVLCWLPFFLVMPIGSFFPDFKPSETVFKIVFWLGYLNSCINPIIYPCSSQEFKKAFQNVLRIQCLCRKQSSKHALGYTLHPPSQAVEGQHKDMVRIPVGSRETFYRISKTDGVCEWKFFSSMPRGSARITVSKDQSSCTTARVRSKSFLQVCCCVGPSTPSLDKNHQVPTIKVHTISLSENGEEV

[9] = target: T6, Adrenergic receptor alpha-1 (Homo sapiens, UniProt P35348+P25100+P35368); experiment: pA2 for Alpha-1 adrenergic receptor from human prostate.; assay type: tissue-based, Prostate gland
T6 sequence (P35348 whole entry): T5 sequence (P35348 whole entry)
T6 sequence (P25100 whole entry): T1 sequence (P25100 whole entry)
T6 sequence (P35368 whole entry): T4 sequence (P35368 whole entry)

[10] = Apparent binding affinity on human 5-alpha reductase isozyme
[11] = target: T3, Steroid 5-alpha-reductase; experiment: Apparent binding affinity on rat 5-alpha reductase isozyme; assay type: protein assay
[12] = target: T7, Alpha-1B adrenergic receptor (Rattus norvegicus, UniProt P15823); experiment: Binding affinity was tested on CEC-pretreated rat liver Alpha-1B adrenergic receptor
T7 sequence (P15823 whole entry): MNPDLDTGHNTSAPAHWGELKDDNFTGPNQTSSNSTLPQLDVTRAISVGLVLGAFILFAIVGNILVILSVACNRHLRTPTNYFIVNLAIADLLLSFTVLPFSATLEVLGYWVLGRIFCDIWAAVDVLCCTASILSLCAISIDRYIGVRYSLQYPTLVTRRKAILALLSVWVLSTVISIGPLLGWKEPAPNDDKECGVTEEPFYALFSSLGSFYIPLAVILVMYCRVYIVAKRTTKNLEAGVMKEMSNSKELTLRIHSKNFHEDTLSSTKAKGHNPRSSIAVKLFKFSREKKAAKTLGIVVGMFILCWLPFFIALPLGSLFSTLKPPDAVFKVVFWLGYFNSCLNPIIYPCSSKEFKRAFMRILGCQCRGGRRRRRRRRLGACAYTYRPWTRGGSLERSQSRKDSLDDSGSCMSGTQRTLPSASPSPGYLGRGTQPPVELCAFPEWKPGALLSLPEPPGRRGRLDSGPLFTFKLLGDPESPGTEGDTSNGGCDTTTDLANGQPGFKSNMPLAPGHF

[13] = target: T8, Alpha-1A adrenergic receptor (Rattus norvegicus, UniProt P43140); experiment: Binding affinity was tested on CEC-pretreated rat hippocampus Alpha-1A adrenergic receptor; assay type: tissue-based
T8 sequence (P43140 whole entry): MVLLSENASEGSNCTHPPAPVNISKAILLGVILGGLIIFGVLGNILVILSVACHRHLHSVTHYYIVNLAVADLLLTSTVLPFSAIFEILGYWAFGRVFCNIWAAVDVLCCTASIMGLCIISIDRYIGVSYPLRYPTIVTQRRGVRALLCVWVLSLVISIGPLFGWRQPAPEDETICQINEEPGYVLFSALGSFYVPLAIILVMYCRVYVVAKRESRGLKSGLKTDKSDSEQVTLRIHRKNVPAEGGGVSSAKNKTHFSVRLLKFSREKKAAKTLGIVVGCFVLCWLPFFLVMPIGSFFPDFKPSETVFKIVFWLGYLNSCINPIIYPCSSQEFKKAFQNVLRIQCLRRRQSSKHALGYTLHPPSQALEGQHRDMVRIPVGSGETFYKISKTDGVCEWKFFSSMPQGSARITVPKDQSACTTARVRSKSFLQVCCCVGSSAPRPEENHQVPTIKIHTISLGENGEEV

Structure (SMILES): COc1cc2nc(N3CCN(C(=O)C4CCCO4)CC3)nc(N)c2cc1OC (stereo not given) [TERAZOSIN]
ED50 (Canis familiaris [1]): 0.101 mg/kg
Ki [2]: 0.00398 µM
ED50 (Canis familiaris [3]): 0.085 mg/kg

Structure (SMILES): CC(C)(Cc1c[nH]c2ccc(Cl)cc12)NCCOc1ccccc1OCC1CC1
Ki [7]: 0.0158 µM
Ki [8]: 0.000631 µM
pA2 [9]: 7.3
Ki [2]: 0.0158 µM

Structure (SMILES): C=Cc1sc2ccc(Cl)c3c2c1CN(C)CC3
Ki [7]: 0.02 µM
pA2 [9]: 7.5
Ki [2]: 0.00316 µM

Structure (SMILES): CC(C)N(C(=O)[C@H]1CCC2C3C=CC4=CC(C(=O)O)=CC[C@]4(C)C3CC[C@@]21C)C(C)C (stereo not given in full)
IC50 [5]: 0.012 µM
IC50 [6]: 0.3 µM

Structure (SMILES): COc1cc2nc(N3CCN(C(=O)c4ccco4)CC3)nc(N)c2cc1OC [PRAZOSIN]
ED50 (Canis familiaris [1]): 0.012 mg/kg
ED50 (Canis familiaris [3]): 0.011 mg/kg

Structure (SMILES): CC(C)NC(=O)N(C(=O)[C@H]1CCC2C3CCC4NC(=O)C=C[C@]4(C)C3CC[C@@]21C)C(C)C (stereo not given in full)
IC50 [4]: 1.55 µM

Other lines, results leading:

IC50 [4]: 0.041 µM
Structure (SMILES): CN1C(=O)CC[C@]2(C)C3CC[C@@]4(C)C(CC[C@@H]4C(=O)N(C(=O)NC4CCCCC4)C4CCCCC4)C3CCC12 (stereo not given in full)

IC50 [5]: 0.035 µM
IC50 [6]: 0.07 µM
Structure (SMILES): CC1=C(C(=O)O)CC[C@@]2(C)C1=CCC1C2CC[C@@]2(C)C1CC[C@@H]2C(=O)N(C(C)C)C(C)C (stereo not given in full)

IC50 [4]: 0.212 µM
Structure (SMILES): CN1C(=O)CC[C@]2(C)C3CC[C@@]4(C)C(CC[C@@H]4C(=O)N(C(=O)NC(C)(C)C)C(C)(C)C)C3CCC12 (stereo not given in full)

IC50 [5]: 0.03 µM
Ki [10]: 0.03 µM
Ki [11]: 0.07 µM
IC50 [6]: 0.07 µM
Structure (SMILES): CC(C)N(C(=O)[C@H]1CC[C@H]2[C@@H]3CCC4C=C(C(=O)O)CC[C@]4(C)[C@H]3CC[C@]12C)C(C)C (stereo not given in full)

IC50 [12]: 0.029 µM
IC50 [13]: 0.001 µM
Structure (SMILES): Cc1ccc(Cl)cc1N1CCN(CCCNC(=O)c2cccc3c(=O)c(C)c(-c4ccccc4)oc23)CC1

Ki [7]: 0.0398 µM
Ki [8]: 0.00398 µM
pA2 [9]: 8.7
Ki [2]: 0.158 µM
Structure (SMILES): O=C(NC1CCN(CCc2c[nH]c3ccccc23)CC1)c1ccccc1 [INDORAMIN]

Ki [7]: 0.2 µM
Ki [8]: 0.0158 µM
pA2 [9]: 7.9
Ki [2]: 0.794 µM
Structure (SMILES): O=C(CCCN1CCC(NC(=O)c2ccccc2)CC1)c1ccccc1

Ki [10]: 0.007 µM
Ki [11]: 0.16 µM
Structure (SMILES): CC(C)N(C(=O)[C@H]1CCC2C3CC=C4C=C([PH](=O)O)CC[C@]4(C)C3CC[C@@]21C)C(C)C (stereo not given in full)
